According to patent publication US20220039384A1, “SELECTIVE WEED CONTROL WITH HALAUXIFEN OR 4-AMINO-3-CHLORO-5-FLUORO-6-(4-CHLORO-2-FLUORO-3-METHOXYPHENYL) PYRIDINE-2-CARBOXYLIC ACID OR DERIVATIVES THEREOF IN VINEYARDS OR PERENNIAL CROPS” (Corteva Agriscience LLC, priority 2013, published 2022):

Key:
Type in all cases: in vivo
[1] = test system: ERICA (Conyza canadensis, horseweed); experiment: Field trial, pre-emergence dormant application (December), California vineyards: visual weed control; conditions: applied prior to weed emergence
Source text: (§1) As used herein, selective pre- and post-emergence control of undesirable vegetation means preventing, reducing, killing, or otherwise adversely modifying the development of the undesirable vegetation in the presence of crop plants with limited adverse effect on the crop plants. For example, a broadleaf weed control of 80% (rated visually) with crop injury of less than or equal to 20% (rated visually) would constitute selective control. In some embodiments the adverse effect on crop plants is limited to less than 10% visually rated crop injury. Visual crop injury is a composite rating accounting for all phytotoxic effects including chlorosis, necrosis, growth inhibition, epinasty, delays in maturity and seed or fruit deformity. Visual weed control is a composite rating accounting for reductions in pest plant biomass and/or stand reduction.
(§2) Small plot research experiments were conducted in Fresno, Calif., USA to evaluate the pre-emergence and post-emergence herbicidal weed control activity and the vines crop tolerance to pre-emergence and post-emergence application of Compound I and Compound II to the weeds. Application water volume of 100 to 187 liters per hectare (L/ha) was used for all experiments. All treatments were applied with a standard small plot carbon dioxide (CO2) backpack sprayer. All treatments were tank-mixed with Crop Oil Concentrate (COC), a well known adjuvant, at 2.34 L/ha. Experimental emulsifiable concentrate (EC) formulations were used for Compounds I and II. The dimethylammonium (DMA) salt of glyphosate was used in all trials. Pindar® GT is a commercial formulation containing a pre-mix of penoxsulam+oxyfluorfen (10+476 grams of active ingredient per liter (g ai/L), respectively). Vine crop stage was dormant (no leaves on the vines during the winter) or early spring growth at the time of Compound I or Compound II application. Generally, weeds were not emerged for the pre-emergence treatments or were at the two to six-leaf stage at the time of the post-emergence herbicide application.
(§3) Tables 1, 2 and 6 provide weed control results from pre-emergence applications of Compounds I and/or II prior to weed emergence; Tables 4, 7 and 8 provide weed control results from post-emergence applications of Compounds I and/or II applied to actively growing weeds; Tables 3 and 5 provide vine response data from pre-emergence and post-emergence applications of Compound I respectively.

[2] = test system: MALPA (Malva parviflora, smallflower malva); experiment: as above; conditions: applied prior to weed emergence
Source text: as §1, §2, §3

VITSS (Vitis spp, grape) = experiment: Field trial, soil-applied dormant application (December), California vineyards: vine injury and growth response; conditions: applied to the soil
Source text: as §1, §2, §3

[3] = test system: AGRRE (Agropyron repens, quackgrass); experiment: Field trial, post-emergence directed spring application (April), California vineyards: visual weed control
Source text: as §1, §2, §3

[4] = test system: ERIBO (Conyza bonariensis, hairy fleabane); experiment: as above
Source text: as §1, §2, §3

[5] = test system: EROCI (Erodium cicutarium, redstem filaree); experiment: as above
Source text: as §1, §2, §3

[6] = test system: MALPA (Malva parviflora, smallflower malva); experiment: as above
Source text: as §1, §2, §3

[7] = test system: PANCA (Panicum capillare, witchgrass); experiment: as above
Source text: as §1, §2, §3

[8] = test system: SETFA (Setaria faberi, giant foxtail); experiment: as above
Source text: as §1, §2, §3

[9] = test system: EROCI (Erodium cicutarium, redstem filaree); experiment: Field trial, post-emergence directed spring application (March), California vineyards: visual weed control
Source text: as §1, §2, §3

[10] = test system: MALPA (Malva parviflora, smallflower malva); experiment: as above
Source text: as §1, §2, §3

[11] = test system: MEDPO (Medicago polymorpha, California burclover); experiment: as above
Source text: as §1, §2, §3

[12] = test system: STEME (Stellaria media, common chickweed); experiment: as above
Source text: as §1, §2, §3

[13] = test system: AMARE (Amaranthus retroflexus, redroot pigweed); experiment: Field trial, post-emergence directed dormant application (December), California vineyards: visual weed control
Source text: as §1, §2, §3

[14] = test system: AMSIN (Amsinckia intermedia, coast fiddleneck); experiment: as above
Source text: as §1, §2, §3

[15] = test system: CAPBP (Capsella bursa-pastoris, Shepherd's purse); experiment: as above
Source text: as §1, §2, §3

[16] = test system: CHEAL (Chenopodium album, common lambsquarters); experiment: as above
Source text: as §1, §2, §3

[17] = test system: IPOSS (Ipomoea spp, morningglory); experiment: as above
Source text: as §1, §2, §3

COC(=O)c1nc(-c2ccc(Cl)c(OC)c2F)cc(N)c1Cl [I—Me, methyl 4-amino-3-chloro-6-(4-chloro-2-fluoro-3-methoxyphenyl)pyridine-2-carboxylate]
% Visual Control 90 DAA ERICA ([1]; 10 g ae/ha): 75% | % Visual Control 184 DAA ERICA ([1]; 10 g ae/ha): 92% | % Visual Control 90 DAA ERICA ([1]; 20 g ae/ha): 100% | % Visual Control 184 DAA ERICA ([1]; 20 g ae/ha): 97% | % Visual Control 90 DAA ERICA ([1]; 40 g ae/ha): 100% | % Visual Control 184 DAA ERICA ([1]; 40 g ae/ha): 100% | % Visual Control 90 DAA MALPA ([2]; 10 g ae/ha): 85% | % Visual Control 184 DAA MALPA ([2]; 10 g ae/ha): 45% | % Visual Control 90 DAA MALPA ([2]; 20 g ae/ha): 88% | % Visual Control 184 DAA MALPA ([2]; 20 g ae/ha): 60% | % Visual Control 90 DAA MALPA ([2]; 40 g ae/ha): 89% | % Visual Control 184 DAA MALPA ([2]; 40 g ae/ha): 47% | VITSS % Visual Injury 124 DAA (VITSS (Vitis spp, grape); 10 g ae/ha): 0% | VITSS % Visual Injury 184 DAA (VITSS (Vitis spp, grape); 10 g ae/ha): 15% | VITSS Branch Length (cm) 184 DAA (VITSS (Vitis spp, grape); 10 g ae/ha): 187 cm | VITSS Internode Length (cm) 184 DAA (VITSS (Vitis spp, grape); 10 g ae/ha): 7 cm | VITSS Yield (Lbs) 236 DAA (VITSS (Vitis spp, grape); 10 g ae/ha): 71 Lbs | VITSS % Visual Injury 124 DAA (VITSS (Vitis spp, grape); 20 g ae/ha): 0% | VITSS % Visual Injury 184 DAA (VITSS (Vitis spp, grape); 20 g ae/ha): 18% | VITSS Branch Length (cm) 184 DAA (VITSS (Vitis spp, grape); 20 g ae/ha): 172 cm | VITSS Internode Length (cm) 184 DAA (VITSS (Vitis spp, grape); 20 g ae/ha): 7 cm | VITSS Yield (Lbs) 236 DAA (VITSS (Vitis spp, grape); 20 g ae/ha): 63 Lbs | VITSS % Visual Injury 124 DAA (VITSS (Vitis spp, grape); 40 g ae/ha): 0% | VITSS % Visual Injury 184 DAA (VITSS (Vitis spp, grape); 40 g ae/ha): 37% | VITSS Branch Length (cm) 184 DAA (VITSS (Vitis spp, grape); 40 g ae/ha): 125 cm | VITSS Internode Length (cm) 184 DAA (VITSS (Vitis spp, grape); 40 g ae/ha): 6 cm | VITSS Yield (Lbs) 236 DAA (VITSS (Vitis spp, grape); 40 g ae/ha): 31 Lbs | % Visual Control 60 DAA AGRRE ([3]; 5 g ae/ha): 87% | % Visual Control 60 DAA AGRRE ([3]; 10 g ae/ha): 80% | % Visual Control 60 DAA AGRRE ([3]; 20 g ae/ha): 83% | % Visual Control 60 DAA ERIBO ([4]; 5 g ae/ha): 97% | % Visual Control 60 DAA ERIBO ([4]; 10 g ae/ha): 95% | % Visual Control 60 DAA ERIBO ([4]; 20 g ae/ha): 93% | % Visual Control 60 DAA EROCI ([5]; 5 g ae/ha): 62% | % Visual Control 60 DAA EROCI ([5]; 10 g ae/ha): 70% | % Visual Control 60 DAA EROCI ([5]; 20 g ae/ha): 86% | % Visual Control 60 DAA MALPA ([6]; 5 g ae/ha): 75% | % Visual Control 60 DAA MALPA ([6]; 10 g ae/ha): 72% | % Visual Control 60 DAA MALPA ([6]; 20 g ae/ha): 73% | % Visual Control 60 DAA PANCA ([7]; 5 g ae/ha): 82% | % Visual Control 60 DAA PANCA ([7]; 10 g ae/ha): 88% | % Visual Control 60 DAA PANCA ([7]; 20 g ae/ha): 86% | % Visual Control 60 DAA SETFA ([8]; 5 g ae/ha): 98% | % Visual Control 60 DAA SETFA ([8]; 10 g ae/ha): 80% | % Visual Control 60 DAA SETFA ([8]; 20 g ae/ha): 97% | % Visual Control 59 DAA EROCI ([9]; 2.5 g ae/ha): 43.3% | % Visual Control 59 DAA EROCI ([9]; 5 g ae/ha): 89.7% | % Visual Control 59 DAA EROCI ([9]; 10 g ae/ha): 94% | % Visual Control 59 DAA MALPA ([10]; 2.5 g ae/ha): 80% | % Visual Control 59 DAA MALPA ([10]; 5 g ae/ha): 90% | % Visual Control 59 DAA MALPA ([10]; 10 g ae/ha): 96.7% | % Visual Control 59 DAA MEDPO ([11]; 2.5 g ae/ha): 100% | % Visual Control 59 DAA MEDPO ([11]; 5 g ae/ha): 100% | % Visual Control 59 DAA MEDPO ([11]; 10 g ae/ha): 100% | % Visual Control 59 DAA STEME ([12]; 2.5 g ae/ha): 46.7% | % Visual Control 59 DAA STEME ([12]; 5 g ae/ha): 94% | % Visual Control 59 DAA STEME ([12]; 10 g ae/ha): 95.7% | % Visual Control 57 DAA AMARE ([13]; 2.5 g ae/ha): 95% | % Visual Control 57 DAA AMARE ([13]; 5 g ae/ha): 96.7% | % Visual Control 57 DAA AMARE ([13]; 10 g ae/ha): 100% | % Visual Control 57 DAA AMSIN ([14]; 2.5 g ae/ha): 38.3% | % Visual Control 57 DAA AMSIN ([14]; 5 g ae/ha): 76.7% | % Visual Control 57 DAA AMSIN ([14]; 10 g ae/ha): 97.3% | % Visual Control 57 DAA CAPBP ([15]; 2.5 g ae/ha): 91.7% | % Visual Control 57 DAA CAPBP ([15]; 5 g ae/ha): 99.3% | % Visual Control 57 DAA CAPBP ([15]; 10 g ae/ha): 100% | % Visual Control 57 DAA CHEAL ([16]; 2.5 g ae/ha): 100% | % Visual Control 57 DAA CHEAL ([16]; 5 g ae/ha): 96.7% | % Visual Control 57 DAA CHEAL ([16]; 10 g ae/ha): 100% | % Visual Control 57 DAA IPOSS ([17]; 2.5 g ae/ha): 57.8% | % Visual Control 57 DAA IPOSS ([17]; 5 g ae/ha): 65% | % Visual Control 57 DAA IPOSS ([17]; 10 g ae/ha): 66.7%
